From ChEMBL document CHEMBL1135849, “Hydroxamate based inhibitors of adenylyl cyclase. Part 1: the effect of acyclic linkers on P-site binding” (Bioorg Med Chem Lett, 2002) come the findings set out here.

Bounds are passed on as bounds.

The target of this assay is Adenylate cyclase type 5 (Homo sapiens, UniProt O95622). The experiment in a line: Inhibition of recombinant human adenylate cyclase 5 expressed in HEK293 cells. In kind it is cell-based.
Chain of Adenylate cyclase type 5 (O95622 whole entry): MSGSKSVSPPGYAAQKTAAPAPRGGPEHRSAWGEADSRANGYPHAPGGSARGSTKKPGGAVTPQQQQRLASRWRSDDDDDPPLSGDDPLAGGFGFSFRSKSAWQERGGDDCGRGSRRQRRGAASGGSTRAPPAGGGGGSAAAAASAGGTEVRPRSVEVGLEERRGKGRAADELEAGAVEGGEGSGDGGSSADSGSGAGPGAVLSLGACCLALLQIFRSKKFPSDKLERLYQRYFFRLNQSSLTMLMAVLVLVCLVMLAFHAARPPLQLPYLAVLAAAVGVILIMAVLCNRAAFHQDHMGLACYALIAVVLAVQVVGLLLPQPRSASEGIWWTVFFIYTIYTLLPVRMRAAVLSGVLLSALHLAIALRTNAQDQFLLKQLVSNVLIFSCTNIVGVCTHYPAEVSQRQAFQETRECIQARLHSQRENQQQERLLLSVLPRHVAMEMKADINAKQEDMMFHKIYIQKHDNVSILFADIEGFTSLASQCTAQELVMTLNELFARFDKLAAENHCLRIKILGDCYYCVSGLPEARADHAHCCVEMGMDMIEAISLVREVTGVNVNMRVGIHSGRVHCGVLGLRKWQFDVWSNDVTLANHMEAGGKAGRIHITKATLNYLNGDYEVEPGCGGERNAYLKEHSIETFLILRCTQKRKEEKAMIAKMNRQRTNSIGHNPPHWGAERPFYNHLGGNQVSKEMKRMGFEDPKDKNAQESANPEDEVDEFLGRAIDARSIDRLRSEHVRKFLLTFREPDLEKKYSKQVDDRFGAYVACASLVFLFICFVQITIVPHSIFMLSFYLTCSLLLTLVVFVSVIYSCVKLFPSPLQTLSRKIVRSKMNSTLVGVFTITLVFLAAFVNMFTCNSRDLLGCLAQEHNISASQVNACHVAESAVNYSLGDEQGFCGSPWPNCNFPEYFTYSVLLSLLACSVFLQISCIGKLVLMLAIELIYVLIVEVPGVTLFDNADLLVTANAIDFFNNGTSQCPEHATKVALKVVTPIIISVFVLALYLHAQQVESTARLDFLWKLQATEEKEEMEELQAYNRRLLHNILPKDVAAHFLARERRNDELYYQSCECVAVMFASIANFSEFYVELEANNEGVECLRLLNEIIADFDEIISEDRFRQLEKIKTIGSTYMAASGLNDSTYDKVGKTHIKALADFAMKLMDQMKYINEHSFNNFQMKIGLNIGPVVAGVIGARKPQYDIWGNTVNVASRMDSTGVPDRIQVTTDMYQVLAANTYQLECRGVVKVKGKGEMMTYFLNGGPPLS
Turning to `CC(C)(C)OC(=O)N(CCCn1cnc2c(N)ncnc21)CC(=O)NO`, the half-inhibitory concentration (IC50) is more than 200 µM.

As to `CCOC(=O)CCCCCn1cnc2c(N)ncnc21`, the IC50 is more than 200 µM.

Consider `Nc1ncnc2c1ncn2CCNCC(=O)O`, for which the IC50 was more than 200 µM.

Take `Nc1ncnc2c1ncn2CCCOCC(=O)O`: the 50% inhibitory concentration (IC50) was found to be 140 µM.

Consider `CCOC(=O)COCCCn1cnc2c(N)ncnc21`, for which the IC50 was more than 200 µM.

Consider `COC(=O)CN(CCn1cnc2c(N)ncnc21)C(=O)OC(C)(C)C`, for which the 50% inhibitory concentration (IC50) is more than 200 µM.

Consider `COC(=O)CN(C)CCn1cnc2c(N)ncnc21`, for which the IC50 was more than 200 µM.

For `CN(CCn1cnc2c(N)ncnc21)CC(=O)NO`, the half-maximal inhibitory concentration (IC50) worked out at 15.3 µM.

For the compound `Nc1ncnc2c1ncn2CCCNCC(=O)NO`, the 50% inhibitory concentration (IC50) is more than 200 µM.

On to `Nc1ncnc2c1ncn2CCC(=O)NO`, for which the IC50 was more than 200 µM.

In the case of `COC(=O)CNCCCn1cnc2c(N)ncnc21`, the IC50 is more than 200 µM.

Turning to `CC(=O)N(CCn1cnc2c(N)ncnc21)CC(=O)NO`, the half-maximal inhibitory concentration (IC50) was more than 200 µM.

For `CC(C)(C)OC(=O)N(CCn1cnc2c(N)ncnc21)CC(=O)NO`, the half-maximal inhibitory concentration (IC50) was more than 200 µM.

As for `Nc1ncnc2c1ncn2CCCOCC(=O)NO`, the IC50 is 94 µM.

`Nc1ncnc2c1ncn2CCCC(=O)NO`: the IC50 was determined as 7.9 µM.

As for `Nc1ncnc2c1ncn2CCCCC(=O)NO`, the half-maximal inhibitory concentration (IC50) stood at 7.6 µM.

For the compound `Nc1ncnc2c1ncn2CCCNCC(=O)O`, the 50% inhibitory concentration (IC50) is more than 200 µM.

In the case of `COC(=O)CN(CCn1cnc2c(N)ncnc21)C(C)=O`, the IC50 is more than 200 µM.

Turning to `CC(C)(C)OC(=O)N(CCCn1cnc2c(N)ncnc21)CC(=O)O`, the IC50 was more than 200 µM.

With `COC(=O)CNCCn1cnc2c(N)ncnc21`, the IC50 was more than 200 µM.

For `Nc1ncnc2c1ncn2CCCCCC(=O)O`, the concentration for half-maximal inhibition (IC50) is more than 200 µM.

Turning to `COC(=O)CCCCn1cnc2c(N)ncnc21`, the IC50 was more than 200 µM.

For `CC(=O)N(CCn1cnc2c(N)ncnc21)CC(=O)O`, the IC50 is more than 200 µM.

For the compound `Nc1ncnc2c1ncn2CCCCCCC(=O)O`, the IC50 was more than 200 µM.

For `Nc1ncnc2c1ncn2CCCCCCC(=O)NO`, the IC50 was more than 200 µM.

On to `Nc1ncnc2c1ncn2CCCCC(=O)O`, for which the IC50 is more than 200 µM.

As for `Nc1ncnc2c1ncn2CCNCC(=O)NO`, the IC50 was more than 200 µM.

For the compound `Nc1ncnc2c1ncn2CCCCCC(=O)NO`, the concentration for half-maximal inhibition (IC50) came to 35.4 µM.

Take `CCOC(=O)CCCCCCn1cnc2c(N)ncnc21`: the IC50 was more than 200 µM.

In the case of `CC(C)(C)OC(=O)N(CCn1cnc2c(N)ncnc21)CC(=O)O`, the concentration for half-maximal inhibition (IC50) is more than 200 µM.

Broadly, the IC50 is the concentration needed to halve the response being measured.
